# Target: T1, angiotensin converting enzyme, extracted from rabbit lung (Oryctolagus cuniculus, UniProt P12822)
# T1 construct: extracted from rabbit lung; from tissue; host or cells: rabbit lung
# T1 sequence (P12822 34-1310): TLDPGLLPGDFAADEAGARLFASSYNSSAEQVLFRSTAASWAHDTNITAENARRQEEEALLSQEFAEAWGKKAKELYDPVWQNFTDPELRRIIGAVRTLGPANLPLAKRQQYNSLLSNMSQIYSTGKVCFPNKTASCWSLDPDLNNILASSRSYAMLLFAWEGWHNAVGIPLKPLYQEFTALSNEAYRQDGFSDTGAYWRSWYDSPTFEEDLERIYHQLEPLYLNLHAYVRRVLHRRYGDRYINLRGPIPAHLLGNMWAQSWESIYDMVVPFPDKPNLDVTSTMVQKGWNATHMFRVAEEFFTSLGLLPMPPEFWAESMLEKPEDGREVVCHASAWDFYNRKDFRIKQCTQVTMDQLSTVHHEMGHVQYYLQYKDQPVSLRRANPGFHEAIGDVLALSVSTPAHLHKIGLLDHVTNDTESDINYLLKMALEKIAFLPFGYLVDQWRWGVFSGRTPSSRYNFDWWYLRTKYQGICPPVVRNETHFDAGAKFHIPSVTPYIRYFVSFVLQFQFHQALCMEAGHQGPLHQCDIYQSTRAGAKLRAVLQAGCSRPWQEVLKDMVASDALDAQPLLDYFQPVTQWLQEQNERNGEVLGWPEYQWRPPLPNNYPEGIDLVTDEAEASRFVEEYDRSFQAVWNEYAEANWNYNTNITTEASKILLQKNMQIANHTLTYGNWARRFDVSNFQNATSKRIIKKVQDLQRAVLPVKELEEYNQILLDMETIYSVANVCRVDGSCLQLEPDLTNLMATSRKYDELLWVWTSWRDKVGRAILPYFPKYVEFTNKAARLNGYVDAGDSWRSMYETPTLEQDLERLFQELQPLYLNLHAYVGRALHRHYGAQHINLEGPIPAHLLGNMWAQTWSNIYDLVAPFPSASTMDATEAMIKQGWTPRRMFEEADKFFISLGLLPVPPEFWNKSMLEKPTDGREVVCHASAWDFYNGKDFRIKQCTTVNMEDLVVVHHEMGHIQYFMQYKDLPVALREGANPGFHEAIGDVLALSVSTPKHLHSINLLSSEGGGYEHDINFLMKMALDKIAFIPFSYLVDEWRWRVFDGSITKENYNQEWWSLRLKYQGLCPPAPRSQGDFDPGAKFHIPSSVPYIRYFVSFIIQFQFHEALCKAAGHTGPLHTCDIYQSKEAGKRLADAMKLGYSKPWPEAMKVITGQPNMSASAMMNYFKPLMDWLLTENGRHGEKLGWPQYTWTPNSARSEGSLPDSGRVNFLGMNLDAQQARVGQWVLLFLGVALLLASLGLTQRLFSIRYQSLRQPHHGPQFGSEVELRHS
# Experiment: in vitro inhibition of angiotensin converting enzyme (cleavage of hippuryl-histidyl-leucine)
# Format: biochemical
# Conditions: hippuryl-histidyl-leucine 2 mM; rabbit lung ACE; pH 8.3; 25 minutes at 37° C.
# Experimental: The activity of the pyrazolopyridazine derivatives of formula I in inhibiting angiotensin converting enzyme in vitro can be determined by the following test.
# The method used is based on the method of Cushman and Cheung (Biochem. Pharmacol., 20, 1637-1648) incorporating the modifications introduced by Hayakari et al. (Anal. Biochem., 84, 361-369). The substrate (hippuryl-histidyl-leucine, 2 mM) is incubated with angiotensin converting enzyme, extracted from rabbit lung, in the presence or absence of various concentrations of test substance in potassium phosphate buffer (pH 8.3; 100 mM) containing sodium chloride (300 mM) for 25 minutes at 37° C. (total […] 500 μl). The reaction is terminated by the addition of 3 ml of potassium phosphate buffer (pH 8.3; 200 mM) at 0° C. 2,4,6-Trichloro-s-triazine (3%) in 1.5 ml of dioxane is added and the mixture is agitated until the yellow chromophore has developed fully. The samples are then centrifuged to remove any precipitate which has formed. The yellow chromophore formed by the reaction of the 2,4,6-trichloro-s-triazine with free hippuric acid is measured spectrophotometrically at 382 nm. IC50 values are defined as the concentration of test substance which reduces by 50% the cleavage of hippurly-histidyl-leucine by angiotensin converting enzyme under the aforementioned conditions.
row,IC50,SMILES
1,100 nM,"CC1(CCS)C(=O)N2CCCC(C(=O)O)N2C1=O (stereo not drawn) [Compound A, Hexahydro-2-(2-mercaptoethyl)-2-methyl-1,3-dioxo-1H-pyrazolo[1,2-a]pyridazine-5-carboxylic acid]"
2,100 nM,"CC1(CCS)CN2CCCC(C(=O)O)N2C1=O (stereo not drawn) [Compound B, Hexahydro-2-(2-mercaptoethyl)-2-methyl-3-oxo-1H-pyrazolo[1,2-a]pyridazine-5-carboxylic acid]"
3,43 nM,"CCC1(CCS)C(=O)N2CC=CC(C(=O)O)N2C1=O (stereo not drawn) [Compound C, 2-Ethyl-2,3,5,8-tetrahydro-2-(2-mercaptoethyl)-1,3-dioxo-1H-pyrazolo-[1,2-a]pyridazine-5-carboxylic acid]"

# Reference: patent publication US4399136A, “Pyrazolopyridazine antihypertensives” (Hoffmann-La Roche Inc., priority 1980, dated 1983)
